Test results from patent US9655965B2, “Radiosensitizer compounds for use in combination with radiation” (priority 2013, dated 2017).
Entries after “also recorded” stand apart in the source; their conditions may differ.

Assays:
[1] = tested on: human normal cells (GM05757); experiment: In vitro toxicity in human normal cells, 72-hr treatment, MTT assay; type: cell-based; settings: GM05757, 72-hr treatment, without ionizing radiation; for toxicity toward human normal cells: 0-50 μM cisplatin, 0-200 μM compounds
From the text: (§1) Dibromo-diamino-benzene (Dibromo-phenylenediamine, Compound B) was obtained from TCI-America. Diiodo-diaminobenzene (Compound C) were synthesized, purified and crystallized in our laboratory, and the structures and purity were examined by NMR and mass spectrometry. MEM and fetal bovine serum (FBS), penicillin G and streptomycin were obtained from Hyclone Laboratories (UT, USA). Stock solution of cisplatin was freshly prepared in ultrapure water or saline, and stock solutions of Compounds A, B, C, D were prepared in pure ethanol, where the final concentration of ethanol was ≦1% when treated to cells.
(§2) A human skin diploid fibroblast (GM05757 cell line) was obtained from the Coriell Cell Repository directly. Fetal bovine serum (FBS) was obtained from Hyclone Laboratories (UT, USA). The GM05757 normal cells were cultivated with MEM (Hyclone) supplemented with 10% FBS, 100 units/mL penicillin G and 100 μg/mL streptomycin (Hyclone). The cells were maintained at 37° C. in a humidified atmosphere containing 5% CO2.
(§3) The radiosensitizing effects of RSCs on cell viability were determined by the 3-[4,5-dimethylthiazol-2-yl]-2,5-diphenyl tetrazoliumbromide (MTT) assay. Cells were cultured in 96-well plates (5×10^3 cells/well) for 24 h. The culture medium was replaced by fresh culture medium and incubated for 72 h with varying drug concentrations. The MTT assay of cell viability was then conducted. Briefly, 100 μl new medium without phenol red containing 1.2 mM MTT (sigma) (i.e., adding 10 μl 12 mM MTT stock solution in PBS) were added to each well and incubated for 4 h. The medium was then removed, and the formazan crystals solubilized by 100 μL/well DMSO (or alternatively by 100 μl/well SDS and incubated for another 4 h). The surviving fraction was determined by measuring the absorbance at 540 nm (570 nm for SDS solubilization) using a Multiskan Spectrum UV/Vis microplate reader (Thermo Scientific), which is directly proportional to the number of viable cells.

[2] = tested on: human normal cells (GM05757); experiment: In vitro radiation-induced toxicity in human normal cells, MTT assay 12 days after X-ray; type: cell-based; settings: GM05757, 12-hr treatment, then 0-10 Gy 225 keV X-ray, MTT at 12 days
From the text: as §1, §2
as §3, with “12” for “72”, “concentrations. The cells were then irradiated by 225 kV X-ray (PRECISION X-RAD IR 225) at a dose rate of 2 Gy/min with various X-ray doses. After irradiation, the cells were incubated for 12 days.” for “concentrations.”, “The medium was then removed, and the formazan crystals solubilized by 100 μL/well DMSO (or alternatively by 100 μl/well SDS and incubated for another 4 h).” left out

[3] = tested on: human cervical cancer (HeLa) cells; experiment: In vitro radiosensitizing effect, MTT assay 6 days after X-ray, HeLa; type: cell-based; settings: 12-hr treatment, MTT at 6 days
From the text: as §1, with “TCI—America.” for “TCI-America.”
(§4) A human skin diploid fibroblast (GM05757 cell line) was obtained from the Coriell Cell Repository directly, while the human cervical cancer cell line (HeLa, ATCC#: CCL-2; or ME-180), human ovarian cancer cell line (NIH:OVCAR-3, ATCC#: HTB-161) and human lung cancer cell line (A549, ATCC#: CCL-185™), together with RPMI 1640, F-12K, McCoy's 5 A and L-15 culture media, were obtained from the American Type Culture Collection (ATCC) directly. Fetal bovine serum (FBS) was obtained from Hyclone Laboratories (UT, USA). The GM05757 normal cells and HeLa cells were cultivated with MEM (Hyclone) supplemented with 10% FBS, 100 units/mL penicillin G and 100 μg/mL streptomycin (Hyclone). The complete growth media for ME-180, NIH:OVCAR-3, A549 and MDA-MB-231 cells were the ATCC-formulated McCoy's 5 A Medium supplemented with 10% FBS, RPMI 1640 medium with 20%, F-12K medium with 10% FBS, and L-15 Medium (Leibovitz) with 10% FBS, respectively. The cells were maintained at 37° C. in a humidified atmosphere containing 5% CO2.
(§5) The radiosensitizing effects of RSCs on cell viability were determined by the 3-[4,5-dimethylthiazol-2-yl]-2,5-diphenyl tetrazoliumbromide (MTT) assay. Cells were cultured in 96-well plates (5×10^3 cells/well) for 24 h. […] The surviving fraction was determined by measuring the absorbance at 540 nm (570 nm for SDS solubilization) using a Multiskan Spectrum UV/Vis microplate reader (Thermo Scientific), which is directly proportional to the number of viable cells.

[4] = tested on: cisplatin-resistant human ovarian cancer (HTB-161) cells; experiment: In vitro radiosensitizing effect, MTT assay 6 days after X-ray, HTB-161; type: cell-based; settings: MTT at 6 days
From the text: as §1, with “TCI—America.” for “TCI-America.”, “cells. […]” for “cells.”
as §5, with “assay.” for “assay. Cells were cultured in 96-well plates (5×10^3 cells/well) for 24 h.”

[5] = tested on: various human cancer cells; experiment: In vitro radiosensitizing effects in various human cancer cells (FIG. 14-21); type: cell-based; settings: 12 hr treatment, then various doses of 225 keV X-ray
From the text: as §1, with “TCI—America.” for “TCI-America.”
as §4
as §3, with “12” for “72”, “concentrations. The cells were then irradiated by 225 kV X-ray (PRECISION X-RAD IR 225) at a dose rate of 2 Gy/min with various X-ray doses. After irradiation, the cells were incubated for 6 days.” for “concentrations.”

mice = settings: literature; cited from earlier work
[6] = [Lu, 2010]; cited from earlier work
[7] = tested on: human cervical cancer (ME-180) cells; experiment: In vitro radiosensitizing effect, MTT assay 6 days after X-ray, ME-180; type: cell-based
From the text: as §1, with “TCI—America.” for “TCI-America.”
as §4
as §3, with “12” for “72”, “concentrations. The cells were then irradiated by 225 kV X-ray (PRECISION X-RAD IR 225) at a dose rate of 2 Gy/min with various X-ray doses. After irradiation, the cells were incubated for 6 days.” for “concentrations.”

Compound: Nc1cc(Cl)c(Cl)cc1N [Compound A, 4,5-dichloro-1,2-phenylenediamine]
- toxicity toward human normal cells [1]: essentially no toxicity; also recorded: little toxicity up to 200 μM
- radiation toxicity in human normal cells [2]: no radiation toxicity
- enhancement of radiosensitivity of cancer cells to X-ray ([3]; 0-10 Gy 225 keV X-ray): significant enhancement in the radiosensitivity
- enhancement of radiosensitivity of cisplatin-resistant cancer cells to X-ray ([4]; HTB-161, 12-hr treatment, 0-10 Gy 225 keV X-ray): significant enhancement in the radiosensitivity
- killing of cancer cells in combination with radiation [5]: enhanced the killing of cancer cells in a radiation dose dependent manner and in synergy with radiation; also recorded: enhances the effectiveness of ionizing radiation to kill tumor cells

Compound: cis-Pt(NH3)2Cl2 [cisplatin, reference compound]
- toxicity toward human normal cells [1]: highly toxic; also recorded: severe toxicity even at low concentrations of ≦30 μM
- IC50 ([1]; read-out: IC50 (cell survival rate 50% with respect to untreated cells)): ~10 µM
- radiation toxicity in human normal cells [2]: essentially no radiation toxicity
- LD50 (mice): 13.5 mg/kg

Compound: Nc1cc(I)c(I)cc1N [Compound C, 4,5-diiodo-1,2-phenylenediamine]
- toxicity toward human normal cells [1]: essentially no toxicity; also recorded: little toxicity up to 200 μM
- enhancement of radiosensitivity of cancer cells to X-ray ([3]; 0 and 20 Gy 225 keV X-ray): significant enhancement in the radiosensitivity
- killing of cancer cells in combination with radiation [5]: enhanced the killing of cancer cells in a radiation dose dependent manner and in synergy with radiation; also recorded: enhances the effectiveness of ionizing radiation to kill tumor cells

Compound: O=c1[nH]c(=O)n([C@H]2C[C@H](O)[C@@H](CO)O2)cc1I [IdU, iododeoxyuridine]
- DET reaction with epre− among halopyrimidines [6]: strongest DET reaction among the halopyrimidines

Compound: bromo-(1,2-)diamino-benzene [Compound D]
- enhancement of radiosensitivity of cancer cells to X-ray ([3]; 0-10 Gy 225 keV X-ray): significant enhancement in the radiosensitivity
- enhancement of radiosensitivity of cisplatin-resistant cancer cells to X-ray ([4]; HTB-161, 0-7.5 Gy 225 keV X-ray): significant enhancement in the radiosensitivity
- enhancement of radiosensitivity of cancer cells to X-ray ([7]; ME-180, 12-hr treatment, 0-10 Gy 225 keV X-ray, MTT at 6 days): significant enhancement in the radiosensitivity
- killing of cancer cells ([7]; ME-180, 50 Gy x-ray with about 100 μM compound, about 20% survived without any RSC): early all cancer cells were killed
- killing of cancer cells in combination with radiation [5]: enhanced the killing of cancer cells in a radiation dose dependent manner and in synergy with radiation; also recorded: enhances the effectiveness of ionizing radiation to kill tumor cells
